pIC50: −log10 of the molar value.

For test [1], the target named is T1, Mcl-1 protein (residues 171-323) (Homo sapiens, UniProt Q07820).
T1 construct: Tag-free Mcl-1 protein (residues 171-323) was used in the FP assay
As to the kind of experiment: Inhibition of Mcl-1 by fluorescence polarization (FP) competitive binding assay with FAM-Bid tracer. Particulars: 2 nM FAM-Bid, 20 nM Mcl-1, 30 min. Summed up:
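Tag-free Mcl-1 (20 nM) with 2 nM FAM-Bid peptide in PBS, 0.01% BGG, 0.01% Triton X-100, 5% DMSO, 30 min at room temperature. FP read at Ex 485/Em 528 nm. IC50 from 10-point curves normalised to DMSO and no-protein controls.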
(In general: Fluorescence polarisation rises when a labelled molecule tumbles more slowly, as on binding a larger partner.)

The subject of test [2] is OPM-2 cells. In words: Cell viability assay (OPM-2 cells), CCK-8. The test is classed as cell-based. As to conditions: 5% FBS. Summed up:
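OPM-2 myeloma cells (20000/well) exposed to serially diluted compound for 24 h at 37 °C, 5% CO2, then incubated 4 h with CCK-8 and read at 450 nm. Readings normalized to vehicle; IC50 from nonlinear regression.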

Test [3] relates to NCI-H929 cells. In words: Cell viability assay (NCI-H929 cells), CCK-8. The test is classed as cell-based. Particulars: 5% FBS. In outline: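 NCI-H929 cells from ATCC were seeded at 20000 cells/well in 95 μL of culture medium in 96-well plates and grown for 4 hrs. Compounds, serially diluted in DMSO and further diluted in medium, were added as 5 μL, and cells were incubated for 24 hrs at 37° C. with 5% CO2. Viability was measured with CCK-8.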

T1 sequence (Q07820 171-323): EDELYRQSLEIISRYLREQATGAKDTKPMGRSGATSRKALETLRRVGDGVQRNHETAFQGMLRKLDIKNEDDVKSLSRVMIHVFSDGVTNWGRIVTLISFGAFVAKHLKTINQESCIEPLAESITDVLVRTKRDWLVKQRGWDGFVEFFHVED

Regarding `CNC[C@]1(OC)C2=C[C@@H](C2)[C@H](C)[C@@H](C)S(=O)(=O)NC(=O)c2ccc3c(c2)N(C[C@@H]2CC[C@H]21)C[C@@]1(CCCc2c1ccc(Cl)c2F)CO3` [compound 52, (1S,11′R,12′S,13′R,16′R,16a′R,18a′R,E)-6-chloro-5-fluoro-16′-methoxy-11′,12′-dimethyl-16′-((methylamino)methyl)-3,4,12′,13′,16′,16a′,17′,18′,18a′,19′-decahydro-1′H,2H,3′H,11′H-spiro[naphthalene-1,2′-[5,7]etheno[13,15]methanocyclobuta[i][1,4]oxazepino[3,4-f][1]thia[2,7]diazacyclohexadecin]-8′(9′H)-one 10′,10′-dioxide], the pIC50 in test [1] was 8.15; in test [2] (Homo sapiens, OPM-2, 24 h), 7.64; in test [3] (Homo sapiens, NCI-H929, 24 h), 7.72.

As to `CO[C@H]1C2=C[C@H](C2)[C@H](C)[C@@H](C)S(=O)(=O)NC(=O)c2ccc3c(c2)N(C[C@@H]2CC[C@H]21)C[C@@]1(CCCc2c1ccc(Cl)c2F)CO3` (single isomer, unassigned) [Cpd. No. 17 (isomer 2)], the negative-log IC50 (pIC50) in test [1] was 7.92; in test [2] (Homo sapiens, OPM-2, 24 h), 6.22; in test [3] (Homo sapiens, NCI-H929, 24 h), 6.51.

For `CO[C@@]1(CN2C[C@@H](C)N(C)[C@@H](C)C2)C2=C[C@@H](C2)[C@H](C)[C@@H](C)S(=O)(=O)NC(=O)c2ccc3c(c2)N(C[C@@H]2CC[C@H]21)C[C@@]1(CCCc2c1ccc(Cl)c2F)CO3` [compound 40, (1S,11′R,12′S,13′R,16′R,16a′R,18a′R,E)-6-chloro-5-fluoro-16′-methoxy-11′,12′-dimethyl-16′-(((3S,5R)-3,4,5-trimethylpiperazin-1-yl)methyl)-3,4,12′,13′,16′,16a′,17′,18′,18a′,19′-decahydro-1′H,2H,3′H,11′H-spiro[naphthalene-1,2′-[5,7]etheno[13,15]methanocyclobuta[i][1,4]oxazepino[3,4-f][1]thia[2,7]diazacyclohexadecin]-8′(9′H)-one 10′,10′-dioxide], the negative-log IC50 (pIC50) in test [1] was 7.77; in test [2] (Homo sapiens, OPM-2, 24 h), 7.26; in test [3] (Homo sapiens, NCI-H929, 24 h) it was 8.59.

Take `C[C@@H]1[C@@H](C)S(=O)(=O)NC(=O)c2ccc3c(c2)N(C[C@@H]2CC[C@H]2[C@@H](OCCN2CCNCC2)C2=C[C@H]1C2)C[C@@]1(CCCc2c1ccc(Cl)c2F)CO3` [compound 65, (1S,11′R,12′S,13′R,16′R,16a′R,18a′R,E)-6-chloro-5-fluoro-11′,12′-dimethyl-16′-(2-(piperazin-1-yl)ethoxy)-3,4,12′,13′,16′,16a′,17′,18′,18a′,19′-decahydro-1′H,2H,3′H, 11′H-spiro[naphthalene-1,2′-[5,7]etheno[13,15]methanocyclobuta[i][1,4]oxazepino[3,4-f][1]thia[2,7]diazacyclohexadecin]-8′(9′H)-one 10′,10′-dioxide]: the pIC50 in test [1] is 7.82; in test [2] (Homo sapiens, OPM-2, 24 h) it was 6.61; in test [3] (Homo sapiens, NCI-H929, 24 h), 6.68.

With `CO[C@@H]1C2=CC(C2)[C@H](C)N(C)S(=O)(=O)NC(=O)c2ccc3c(c2)N(C[C@@H]2CC[C@H]21)C[C@@]1(CCCc2cc(Cl)ccc21)CO3` (single isomer, unassigned) [27 (isomer 2)], the pIC50 was 8.47 in test [1], 5.44 in test [2] (24 h) and 5.30 in test [3] (24 h).

As for `C[C@@H]1[C@@H](C)S(=O)(=O)NC(=O)c2ccc3c(c2)N(C[C@@H]2CC[C@H]2[C@@H](OCCS(C)(=O)=O)C2=C[C@H]1C2)C[C@@]1(CCCc2c1ccc(Cl)c2F)CO3` [compound 61, (1S,11′R,12′S,13′R,16′R,16a′R,18a′R,E)-6-chloro-5-fluoro-11′,12′-dimethyl-16′-(2-(methylsulfonyl)ethoxy)-3,4,12′,13′,16′,16a′,17′,18′,18a′,19′-decahydro-1′H,2H,3′H,11′H-spiro[naphthalene-1,2′-[5,7]etheno[13,15]methanocyclobuta[i][1,4]oxazepino[3,4-f][1]thia[2,7]diazacyclohexadecin]-8′(9′H)-one 10′,10′-dioxide], the pIC50 in test [1] was 8.00; in test [2] (Homo sapiens, OPM-2, 24 h), 7.12; in test [3] (Homo sapiens, NCI-H929, 24 h), 7.55.

One may read the pIC50 as −log10 of the IC50, conventionally taken in molar units.

These data come from patent US11498928B2, “Macrocyclic spiroethers as Mcl-1 inhibitors” (ASCENTAGE PHARMA (SUZHOU) CO., LTD., priority 2019, dated 2022).
